Counter-ions that a name gives are not always drawn.
System: clot lysis (fibrinolysis) in diluted human citrated plasma, tPA-induced
Assay: Plasma-based clot lysis assay (5%)
Assay type: biochemical
Conditions: human citrated platelet-poor plasma 5%, fibrinogen 3 μM, CaCl2 10 mM, tPA 0.2 nM, 37° C., OD at 405 nm
Summary of the method: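 Clot formation and breakdown triggered by CaCl2 (10 mM final) plus tPA (0.2 nM final) at 37° C, in 5% diluted human plasma supplemented with 3 μM fibrinogen (HEPES/NaCl/Brij buffer, pH 7). IC50 obtained from time courses relative to a blank control.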

SMILES | IC50
CC(C)(C)c1nnc(-c2cnn3c(C4CCNCC4)cc(=O)[nH]c23)o1 [Example 165, 3-(5-tert-butyl-1,3,4-oxadiazol-2-yl)-7-(piperidin-4-yl)pyrazolo[1,5-a]pyrimidin-5 (4H)-one hydrochloride] | 34 nM
Cc1nn2c(C3CCNCC3)cc(=O)[nH]c2c1C(=O)N1CCC(F)(F)C1 [Example 429, 3-[(3,3-difluoro-pyrrolidin-1-yl)carbonyl]-2-methyl-7-(piperidin-4-yl) pyrazolo[1,5-a] pyrimidin-5(4H)-one hydrochloride] | 30 nM
Cc1noc(-c2c(C)nn3c(C4CCNCC4)cc(=O)[nH]c23)n1 [Example 339, 2-methyl-3-(3-methyl-1,2,4-oxadiazol-5-yl)-7-(piperidin-4-yl)pyrazolo[1,5-a]pyrimidin-5(4H)-one hydrochloride] | 28 nM
O=C(NCC1CCCC1)c1cnn2c(C3CCNCC3)cc(=O)[nH]c12 [Example 77] | 62 nM
COCc1nc(-c2cnn3c(C4CCNCC4)cc(=O)[nH]c23)no1 [Example 394, 3-(5-(methoxymethyl)-1,2,4-oxadiazol-3-yl)-7-(piperidin-4-yl)pyrazolo[1,5-a]pyrimidin-5(4H)-one hydrochloride] | 29 nM
CCOC(=O)c1cnn2c(C3CCNCC3)cc(=O)[nH]c12 [Example 16, Ethyl 5-oxo-7-(piperidin-4-yl)-4,5-dihydropyrazolo[1,5-a]pyrimidine-3-carboxylate hydrochloride] | 11 nM
CC(C)(C)CC1CC(c2cc(=O)[nH]c3c(-c4nc(C(C)(C)C)no4)cnn23)CCN1 (stereo not drawn) [Example 303, 3-(3-tert-butyl-1,2,4-oxadiazol-5-yl)-7-[2-(2,2-dimethylpropyl)piperidin-4-yl]pyrazolo[1,5-a]pyrimidin-5(4H)-one hydrochloride] | 38 nM

More lines, in order of falling IC50, values ahead:

IC50 | SMILES
160 nM | O=c1cc(C2CCNCC2)n2nc(-c3cccs3)cc2[nH]1 [Example 25, 7-(Piperidin-4-yl)-2-(2-thienyl)pyrazolo[1,5-a]pyrimidin-5(4H)-one hydrochloride]
39 nM | COc1cc(-c2noc(-c3cnn4c(C5CCNCC5)cc(=O)[nH]c34)n2)ccc1C [Example 116, 3-[3-(3-Methoxy-4-methylphenyl)-1,2,4-oxadiazol-5-yl]-7-(piperidin-4-yl)pyrazolo[1,5-a]pyrimidin-5(4H)-one hydrochloride]
35 nM | CCCCc1nnc(-c2cnn3c(C4CCNCC4)cc(=O)[nH]c23)o1 [Example 295, 3-(5-butyl-1,3,4-oxadiazol-2-yl)-7-(piperidin-4-yl)pyrazolo[1,5-a]pyrimidin-5(4H)-one hydrochloride]
33 nM | O=c1cc(C2CCNCC2)n2ncc(-c3nnc(O)o3)c2[nH]1 [Example 286, 3-(5-hydroxy-1,3,4-oxadiazol-2-yl)-7-(piperidin-4-yl)pyrazolo[1,5-a]pyrimidin-5(4H)-one hydrochloride]
29 nM | Cc1ccc(F)cc1NC(=O)c1cnn2c(C3CCNCC3)cc(=O)[nH]c12 [Example 76, N-(5-fluoro-2-methylphenyl)-5-oxo-7-(piperidin-4-yl)-4,5-dihydropyrazolo[1,5-a]pyrimidine-3-carboxamide]
29 nM | Cc1nn2c(C3CCNCC3)cc(=O)[nH]c2c1-c1nc(-c2cccc(Cl)c2)no1 [Example 441, 3-[3-(3-chlorophenyl)-1,2,4-oxadiazol-5-yl]-2-methyl-7-(piperidin-4-yl)pyrazolo[1,5-a]pyrimidin-5(4H)-one hydrochloride]
28 nM | O=c1cc(C2CCNCC2)n2ncc(-c3nc(-c4cc(Cl)ccc4C(F)(F)F)no3)c2[nH]1 [Example 145, 3-{3-[5-Chloro-2-(trifluoromethyl)phenyl]-1,2,4-oxadiazol-5-yl}-7-(piperidin-4-yl)pyrazolo[1,5-a]pyrimidin-5(4H)-one hydrochloride]
14 nM | COc1ccc(Cc2nnc(-c3cnn4c(C5CCNCC5)cc(=O)[nH]c34)o2)cc1F [Example 447, 3-[5-(3-fluoro-4-methoxybenzyl)-1,3,4-oxadiazol-2-yl]-7-(piperidin-4-yl)pyrazolo[1,5-a]pyrimidin-5(4H)-one hydrochloride]

— US10118930B2, “Piperidinylpyrazolopyrimidinones and their use” (BAYER PHARMA AKTIENGESELLSCHAFT, priority 2015, dated 2018)
